Test results from patent US9950062B2, “Compounds and compositions as TLR activity modulators” (priority 2009, dated 2018).

Legend:
[1] = tested on: strain NZ98; test: Serum bactericidal antibody (SBA) assay after immunization with 5CVMB; format: in vivo, MenB; settings: compound pre-adsorbed to aluminium hydroxide adjuvant (25 μg or 100 μg) vs adjuvant alone or compound alone
Experimental: The MenB antigens are tested for in vivo immunogenic potency using a serum bactericidal antibody (SBA) assay.

[2] = Adsorption to aluminum hydroxide, LC-MS/MS of supernatant
Experimental: The resulting solution was diluted 10-fold with blank histidine buffer to a final compound concentration of 0.1 mg/mL. Diluted solutions were incubated at 37° C. for 5 hours. The samples were centrifuged at 14,000 rpm for 10 minutes to pellet the insoluble. The supernatant (along with an internal standard) was then evaluated by LC-MS/MS using a ballistic gradient (from 5% CH3CN-0.5% formic acid to 95% CH3CN-1.0% formic acid in 3.5 minutes) on a Waters Atlantis dC18 (50 mm×2.1 mm) column at room temperature against a calibration curve prepared at known compound concentrations ranging from 0.005 to 50 μM. The concentration in the supernatant was calculated as % unbound to alum compared to control; the % bound to alum was calculated as 100% minus % unbound.

[3] = tested on: CD4+ T-cells, CD19+ B-cells; test: Activation markers on T-cells and B-cells in spleen and draining lymph nodes; format: in vivo
[4] = tested on: serum cytokines (IL-6, mKC, MCP-1); test: Serum cytokines 24 hours after immunization; format: in vivo
Experimental: Serum cytokines are measured 24 hours after immunization with compound 6, with or without aluminium hydroxide adjuvant, or with buffer alone. Levels of IL-6 and mKC are both about ˜4-fold higher after administration of compound 6 without adjuvant, and levels of MCP-1 are ˜20-fold higher (compared to vehicle alone). […] Similarly, adsorption to aluminium hydroxide adjuvant decreases both the proportion of CD4+ T-cells which are also CD69+ and the proportion of CD19+ B-cells which are also CD86+, and this effect is seen in both the spleen and in draining lymph nodes. For example, adsorption reduces the proportion of CD86+ B-cells from ˜75% to ˜15%.

[5] = Muscle levels 24 hours after intramuscular injection; settings: 24 hours after intramuscular injection (100 μg) with protein antigens, Balb/C mice
[6] = Binding to aluminum hydroxide adjuvant, HPLC of supernatant; format: physicochemical; settings: 100 μg/dose, room temperature and 37° C., 1, 5 and 24 hours
Experimental: The binding of the compounds of Formula (I) provided herein to aluminum-containing adjuvants at pH 9 and pH 6.5 was evaluated using HPLC to monitor the presence of the compound of Formula (I) in the supernatant.
(§1) Compound 1 (0.5 mg/mL) was dissolved in 10 mM NaOH and added to aluminum hydroxide adjuvant (2 mg/mL) resulting in a 100 μg/dose formulation. The supernatant was evaluated with HPLC using a ballistic gradient (from 10% CH3CN-0.1% TFA to 100% CH3CN-0.1% TFA in 2.5 minutes) on a C18 ([…]×4.6 mm) ACE column at 45° C. To evaluate the effect of supernatant temperature and incubation time on binding, the supernatant was evaluated at a supernatant temperature of room temperature and at 37° C. after 1 hour, 5 hours and 24 hours. A control without aluminum hydroxide was also evaluated.
as §1, with “Compound 5 (1” for “Compound 1 (0.5”, “to aluminium” for “to aluminum”
as §1, with “to aluminium” for “to aluminum”, “formulation. The pH of the solution was adjusted to pH 6.5 using HCl.” for “formulation.”
as §1, with “Compound 5 (1” for “Compound 1 (0.5”, “mM histidine buffer (1 mg/mL)” for “mM NaOH”, “to aluminium” for “to aluminum”

[7] = Adsorption to and desorption from aluminum hydroxide, HPLC (compound-modified alum formulation); format: physicochemical; settings: alum formulation as for compound 1
Experimental: SDS-PAGE was used to evaluate the effect of the binding of compound 1 to aluminum hydroxide adjuvant on the ability of MenB antigens to bind to aluminum hydroxide adjuvant. Compound 1 was dissolved in 10 mM NaOH at 0.5 mg/ml final concentration. Alum and Compound 1 were combined at 1:6 (Compound 1:Alum) weight ratio in the presence of 10 mM Histidine final concentration. The pH was adjusted to 9.2 and the mixture was gently agitated for 3 hours at room temperature, allowing the reaction to occur. The mixture was centrifuged at 5000×g for 10 minutes and the supernatant discarded. The pellet (i.e. the compound 1-modified Alum) was resuspended in the initial Alum buffer to obtain the starting alum concentration. The pH was adjusted to 6.5. The modified Alum was then used for the formulation with the MenB antigens.
The adsorption of compound 16 and compound 17 to aluminum hydroxide was also evaluated using the alum formulation described above for compound 1. […] In addition, SDS-PAGE analysis of antigen binding in the presence of compound 16 or compound 17 was carried out as described above.

[8] = Systemic serum exposure after intramuscular injection; format: in vivo; settings: intramuscular injection 100 μg (4 mg/kg), Balb/C mice
Experimental: Systemic serum exposure of the compounds is followed for 24 hours.

[9] = Solubility; format: physicochemical
[10] = Confocal microscopy of aluminium hydroxide adjuvant mixed with compound; format: physicochemical; settings: adjuvant 3 mg/ml, compound 0.25 mg/ml
Description: Compound 1 is intrinsically fluorescent.

[11] = Phosphate desorption and organic solvent extraction from aluminum hydroxide, HPLC; format: physicochemical
Experimental: An organic solvent extraction method was used to evaluate whether compound 1 was covalently bound to aluminum hydroxide. The formulation was prepared as follows: 2 mg/ml aluminum hydroxide, 100 μg/dose compound 1, 10 mM histidine buffer) and the pH was adjusted to 9. A control formulation without aluminum hydroxide was also prepared.
One ml of the formulation containing Alum was mixed with 1 ml of KH2PO4 1M pH 9 (0.5M final conc, pH 9) and was left in gentle agitation overnight at 37° C. to allow desorption of compound 1 (compound 5) from the aluminum hydroxide via ligand exchange with the phosphate anions. Organic extraction was then performed: 1 ml of each sample was mixed with 1 ml of n-butanol and vortexed. After the formation of 2 phases, the upper phase (butanol) was recovered, dried with N2 and resuspended in MeOH/10 mM NaOH. HPLC analysis was run both for the formulation supernatants and for the butanol extracted samples (C18 column; 0-100% B in 2 min; A=0.1% TFA in H2O; B=0.1% TFA in ACN). […]

[12] = 10 mM histidine buffer pH 6.8, final compound concentration 0.1 mg/mL, 37° C. for 5 hours, 100% minus % unbound
[13] = adsorbed to aluminium hydroxide adjuvant
[14] = in combination with aluminium hydroxide adjuvant
[15] = with aluminium hydroxide adjuvant
[16] = without aluminium hydroxide adjuvant
[17] = pH 9, 10 mM NaOH, aluminum hydroxide 2 mg/mL

SMILES: Cc1ccc2c(c1)nc(N)c1ncc(CCc3ccc(OCCOCCOCCC(F)(F)P(=O)(O)O)cc3C)cc12 [Compound 6, 3-(2-(2-(4-(2-(5-amino-8-methylbenzo[f][1,7]naphthyridin-2-yl)ethyl)-3-methylphenoxy)ethoxy)ethoxy)-1,1-difluoropropylphosphonic acid]
- bactericidal (SBA) titer against strain NZ98 [1]: large increase in SBA titer
- % bound to alum [2, 12]: 98.2%
- proportion of CD86+ B-cells [3, 13]: ~15%
- effect of adsorption on proportion of CD4+ T-cells which are also CD69+ ([3]; adsorbed vs unadsorbed, spleen and draining lymph nodes): decreases
- proportion of CD86+ B-cells ([3]; without adsorption to aluminium hydroxide adjuvant): ~75%
- serum IL-6 level compared to vehicle alone [4, 14]: < 2 fold
- serum MCP-1 level compared to vehicle alone [4, 14]: < 2 fold
- serum mKC level compared to vehicle alone [4, 14]: < 2 fold
- serum IL-6 level compared to vehicle alone ([4]; without adjuvant): ~4 fold
- serum MCP-1 level compared to vehicle alone ([4]; without adjuvant): ~20 fold
- serum mKC level compared to vehicle alone ([4]; without adjuvant): ~4 fold
- muscle level of compound [5, 15]: readily detected
- muscle level of compound [5, 16]: undetectable

SMILES: Cc1ccc2c(c1)nc(N)c1ncc(CCc3ccc(OCCCC(F)(F)P(=O)(O)O)cc3C)cc12 [Compound 5, 4-(4-(2-(5-amino-8-methylbenzo[f][1,7]naphthyridin-2-yl)ethyl)-3-methylphenoxy)-1,1-difluorobutylphosphonic acid]
- presence of compound in supernatant when aluminum hydroxide included (HPLC) ([6]; pH 6.7, 10 mM histidine buffer, aluminium hydroxide 2 mg/mL): not present in the supernatant
- presence of compound in supernatant when aluminum hydroxide included (HPLC) [6, 17]: not present in the supernatant

SMILES: Cc1cc(OCCOCCC(F)(F)P(=O)(O)O)ccc1CCc1cnc2c(N)nc3cc(CCC(=O)O)ccc3c2c1 [Compound 19, 3-(5-amino-2-(4-(2-(3,3-difluoro-3-phosphonopropoxy)ethoxy)-2-methylphenethyl)benzo[f][1,7]naphthyridin-8-yl)propanoic acid]
- % bound to alum ([2]; 5 h, 0.1 mg/mL, pH 6.8): 96.0%

SMILES: Cc1cc(OCCCC(F)(F)P(=O)(O)O)ccc1CCc1cnc2c(N)nc3cc(CCC(=O)O)ccc3c2c1 [Compound 16, 3-(5-amino-2-(4-(4,4-difluoro-4-phosphonobutoxy)-2-methylphenethyl)benzo[f][1,7]naphthyridin-8-yl)propanoic acid]
- % bound to alum [2, 12]: 94.5%
- compound in supernatant after addition of aluminum hydroxide (HPLC) [7]: no compound was observed in the supernatant
- serum concentration profile over 24 hours [8, 13]: much flatter response which is sustained for a longer period
- serum concentration profile over 24 hours ([8]; unadsorbed (buffer alone)): high initial serum concentration which rapidly declines
- muscle level of compound [5, 15]: readily detected
- muscle level of compound [5, 16]: undetectable

SMILES: Cc1ccc2c(c1)nc(N)c1ncc(CCc3ccc(OCCCP(=O)(O)O)cc3C)cc12 [Compound 1, 3-(4-(2-(5-amino-8-methylbenzo[f][1,7]naphthyridin-2-yl)ethyl)-3-methylphenoxy)propylphosphonic acid]
- solubility in histidine buffer [9]: poorly soluble
- presence of compound in supernatant when aluminum hydroxide included (HPLC) ([6]; pH 6.5 (adjusted with HCl), aluminium hydroxide 2 mg/mL): not present in the supernatant
- presence of compound in supernatant when aluminum hydroxide included (HPLC) [6, 17]: not present in the supernatant
- association with aluminium hydroxide adjuvant particles (confocal microscopy) [10]: associates with particles of the insoluble metal salt
- quantity of compound in supernatant of formulation treated with KH2PO4 (desorption by phosphate anions) ([11]; 0.5M KH2PO4 pH 9, overnight at 37° C.): Increased quantities
- Concentration ([11]; control/extract: n-butanol extract of control formulation without aluminum hydroxide): 217 ± 1 µg/mL
- Concentration ([11]; extaract: n-butanol extract of formulation with alum): 27 ± 1 µg/mL
- Concentration ([11]; phosphate supernatant: formulation with alum treated with 0.5M KH2PO4 pH 9 overnight at 37° C.): 59 ± 1 µg/mL
- Concentration ([11]; phosphate/extract: n-butanol extract of KH2PO4-treated formulation with alum): 119 ± 1 µg/mL
- Concentration ([11]; supernatant control: formulation without aluminum hydroxide): 329 ± 1 µg/mL
- Concentration ([11]; supernatant of formulation with 2 mg/ml aluminum hydroxide, 10 mM histidine buffer, pH 9): 5 ± 1 µg/mL

SMILES: Cc1cc(OCCOCCOCCC(F)(F)P(=O)(O)O)ccc1CCc1cnc2c(N)nc3cc(CCC(=O)O)ccc3c2c1 [Compound 17, 3-(5-amino-2-(4-(2-(2-(3,3-difluoro-3-phosphonopropoxy)ethoxy)ethoxy)-2-methylphenethyl)benzo[f][1,7]naphthyridin-8-yl)propanoic acid]
- % bound to alum [2, 12]: 96.2%
- compound in supernatant after addition of aluminum hydroxide (HPLC) [7]: no compound was observed in the supernatant
- muscle level of compound [5, 15]: readily detected
- muscle level of compound [5, 16]: undetectable
